The values that follow come from patent US20150344540A1, “NOVEL GLP-1 RECEPTOR AGONISTS WITH CHOLESTEROL EFFLUX ACTIVITY” (NOVO NORDISK A/S, priority 2012, published 2015).

The target of experiment [1] is human GLP-1 receptor (Homo sapiens, UniProt P43220). Put plainly: Functional GLP-1 receptor assay, in vitro potency (CRE luciferase; whole cells). The class given is cell-based.
The subject of experiment [2] is Mouse monocyte/macrophage cell line, RAW 264.7. Put plainly: Cholesterol efflux assay (3H-cholesterol, macrophage cell line). Type of experiment: cell-based. As to conditions: RAW 264.7, 4 hrs incubation, 0.1% human serum albumin; for 4 h Cholesterol Efflux Emax: ABCA1-mediated efflux; for EC50: read-out: 4 h Cholesterol Efflux EC50, ABCA1-mediated efflux (CPT-cAMP induced minus non-induced).

Where [3] appears, read: BHK cells expressing human GLP-1 receptor, 0% HSA, read-out: GLP1R CRE luc 0% HSA EC50 Mean Value.
Where [4] appears, read: GLP1R CRE luc 1% HSA EC50 Mean Value, BHK cells expressing human GLP-1 receptor, 1% HSA.

Where two headings read alike, the source gives them in different places. Where a SMILES comes first, the peptide text is derived from it. [ ]: non-standard residue; d: D form. Aib = CC(C)(N)C(=O)O

Sequence of human GLP-1 receptor (P43220 24-463): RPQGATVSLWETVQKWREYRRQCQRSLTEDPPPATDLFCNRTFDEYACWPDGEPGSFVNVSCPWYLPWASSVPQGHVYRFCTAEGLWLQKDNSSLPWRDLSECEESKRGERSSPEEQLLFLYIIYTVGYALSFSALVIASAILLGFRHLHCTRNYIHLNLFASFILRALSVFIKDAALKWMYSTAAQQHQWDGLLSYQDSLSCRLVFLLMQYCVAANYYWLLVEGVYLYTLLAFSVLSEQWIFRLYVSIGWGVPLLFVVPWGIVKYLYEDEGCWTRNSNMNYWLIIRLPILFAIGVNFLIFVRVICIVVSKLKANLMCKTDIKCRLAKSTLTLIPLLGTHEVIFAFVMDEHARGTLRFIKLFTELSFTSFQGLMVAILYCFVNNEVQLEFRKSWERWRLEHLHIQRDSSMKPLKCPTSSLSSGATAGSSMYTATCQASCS

One may read the EC50 as the midpoint of the concentration-response curve. As for `CC[C@H](C)[C@H](NC(=O)[C@H](Cc1ccccc1)NC(=O)[C@H](CCC(=O)O)NC(=O)[C@H](CCCCN)NC(=O)[C@@H](NC(=O)[C@H](C)NC(=O)[C@H](CCC(=O)O)NC(=O)CNC(=O)[C@H](CCC(=O)O)NC(=O)[C@H](CC(C)C)NC(=O)[C@H](Cc1ccc(O)cc1)NC(=O)[C@H](CO)NC(=O)[C@H](CO)NC(=O)[C@@H](NC(=O)[C@H](CC(=O)O)NC(=O)[C@H](CO)NC(=O)[C@@H](NC(=O)[C@H](Cc1ccccc1)NC(=O)[C@@H](NC(=O)CNC(=O)[C@H](CCC(=O)O)NC(=O)C(C)(C)NC(=O)[C@@H](N)Cc1c[nH]cn1)[C@@H](C)O)[C@@H](C)O)C(C)C)C(C)C)C(=O)N[C@@H](Cc1c[nH]c2ccccc12)C(=O)N[C@@H](Cc1c[nH]c2ccccc12)C(=O)N[C@@H](CC(C)C)C(=O)N[C@H](C(=O)N[C@@H](CCC(=O)O)C(=O)N[C@@H](CCCCN)C(=O)NC(C)(C)C(=O)N[C@@H](CCCCN)C(=O)N[C@@H](CCC(=O)O)C(=O)N[C@@H](Cc1ccccc1)C(=O)N[C@@H](CC(C)C)C(N)=O)C(C)C` [Compound 50, [Aib8,Glu23,Val25,Trp30,Glu34,Lys35,Aib36,Lys37]-GLP-1-(7-37)-peptidyl-Glu-Phe-Leu amide] (H-H[Aib]EGTFTSDVSSYLEGEAVKEFIWWLVEK[Aib]KEFL-NH2), the EC50 in experiment [1] (setting [3]) worked out at 0.157 nM. The “4 h Cholesterol Efflux Emax” value in experiment [2] turned out to be 87%.

`CC[C@H](C)[C@H](NC(=O)[C@H](Cc1ccccc1)NC(=O)[C@H](CCC(=O)O)NC(=O)[C@H](CCCCN)NC(=O)[C@@H](NC(=O)[C@H](C)NC(=O)[C@H](CCC(=O)O)NC(=O)CNC(=O)[C@H](CCC(=O)O)NC(=O)[C@H](CC(C)C)NC(=O)[C@H](Cc1ccc(O)cc1)NC(=O)[C@H](CO)NC(=O)[C@H](CO)NC(=O)[C@@H](NC(=O)[C@H](CC(=O)O)NC(=O)[C@H](CO)NC(=O)[C@@H](NC(=O)[C@H](Cc1ccccc1)NC(=O)[C@@H](NC(=O)CNC(=O)[C@H](CCC(=O)O)NC(=O)C(C)(C)NC(=O)[C@@H](N)Cc1c[nH]cn1)[C@@H](C)O)[C@@H](C)O)C(C)C)C(C)C)C(=O)N[C@@H](C)C(=O)N[C@@H](Cc1c[nH]c2ccccc12)C(=O)N[C@@H](CC(C)C)C(=O)N[C@H](C(=O)N[C@@H](CCC(=O)O)C(=O)N[C@@H](CCCCN)C(=O)N[C@@H](Cc1ccccc1)C(=O)N[C@@H](CCCCN)C(=O)N[C@@H](CCC(=O)O)C(=O)N[C@@H](C)C(=O)N[C@@H](Cc1ccccc1)C(N)=O)C(C)C` [Compound 46, [Aib8,Glu23,Val25,Glu34,Lys35,Phe36,Lys37]-GLP-1-(7-37)-peptidyl-Glu-Ala-Phe amide] (H-H[Aib]EGTFTSDVSSYLEGEAVKEFIAWLVEKFKEAF-NH2): the EC50 in experiment [1] (setting [3]) is 0.372 nM. In addition, the “4 h Cholesterol Efflux Emax” value in experiment [2] turned out to be 98%.

As for `CC[C@H](C)[C@H](NC(=O)[C@H](Cc1ccccc1)NC(=O)[C@H](CCC(=O)O)NC(=O)[C@H](CCCNC(=N)N)NC(=O)[C@@H](NC(=O)[C@H](C)NC(=O)[C@H](CCC(=O)O)NC(=O)[C@H](CCC(=O)O)NC(=O)[C@H](CCC(=O)O)NC(=O)[C@H](CCSC)NC(=O)[C@H](CCC(N)=O)NC(=O)[C@H](CCCCN)NC(=O)[C@H](CO)NC(=O)[C@H](CC(C)C)NC(=O)[C@H](CC(=O)O)NC(=O)[C@H](CO)NC(=O)[C@@H](NC(=O)[C@H](Cc1ccccc1)NC(=O)[C@@H](NC(=O)CNC(=O)[C@H](CCC(=O)O)NC(=O)C(C)(C)NC(=O)[C@@H](N)Cc1c[nH]cn1)[C@@H](C)O)[C@@H](C)O)C(C)C)C(=O)N[C@@H](CCC(=O)O)C(=O)N[C@@H](Cc1c[nH]c2ccccc12)C(=O)N[C@@H](CC(C)C)C(=O)N[C@@H](CCCCN)C(=O)N[C@@H](CC(N)=O)C(=O)N[C@@H](CCCCN)C(=O)NC(C)(C)C(=O)N[C@@H](CC(C)C)C(=O)N[C@@H](CCC(=O)O)C(=O)N[C@@H](CO)C(=O)N[C@@H](CC(C)C)C(=O)N[C@@H](CCC(=O)O)C(=O)N[C@@H](CC(C)C)C(=O)N[C@@H](CC(C)C)C(N)=O` [Compound 37, [Aib2,Glu21,Lys29,Aib30,Leu31,Glu32,Leu34,Glu35,Leu36,Leu371-Exendin-4-(1-37)-peptide amide] (H-H[Aib]EGTFTSDLSKQMEEEAVREFIEWLKNK[Aib]LESLELL-NH2; N-terminus assumed), the EC50 came to 0.023 nM in experiment [1] (setting [3]) and 0.011 nM in experiment [1] (setting [4]). Moreover, the “4 h Cholesterol Efflux Emax” value in experiment [2] came out at 102%.

`CC[C@H](C)[C@H](NC(=O)[C@H](Cc1ccccc1)NC(=O)[C@H](CCC(=O)O)NC(=O)[C@H](CCCCN)NC(=O)[C@@H](NC(=O)[C@H](C)NC(=O)[C@H](CCC(=O)O)NC(=O)CNC(=O)[C@H](CCC(=O)O)NC(=O)[C@H](CC(C)C)NC(=O)[C@H](Cc1ccc(O)cc1)NC(=O)[C@H](CO)NC(=O)[C@H](CO)NC(=O)[C@@H](NC(=O)[C@H](CC(=O)O)NC(=O)[C@H](CO)NC(=O)[C@@H](NC(=O)[C@H](CC(C)C)NC(=O)[C@@H](NC(=O)CNC(=O)[C@H](CC(=O)O)NC(=O)[C@H](C)NC(=O)[C@@H](N)Cc1c[nH]cn1)[C@@H](C)O)[C@@H](C)O)[C@@H](C)CC)C(C)C)C(=O)N[C@@H](C)C(=O)N[C@@H](Cc1c[nH]c2ccccc12)C(=O)N[C@@H](CC(C)C)C(=O)N[C@H](C(=O)N[C@@H](CCC(=O)O)C(=O)N[C@@H](CCCCN)C(=O)NC(C)(C)C(=O)N[C@@H](CCCCN)C(=O)N[C@@H](CCC(=O)O)C(=O)N[C@@H](Cc1ccccc1)C(=O)N[C@@H](CC(C)C)C(N)=O)C(C)C` [Compound 14, [Asp9,Leu12,Ile16,Glu23,Val25,Glu34,Lys35,Aib36,Lys37]-GLP-1-(7-37)-peptidyl-Glu-Phe-Leu amide] (H-HADGTLTSDISSYLEGEAVKEFIAWLVEK[Aib]KEFL-NH2; N-terminus assumed): the EC50 is 0.062 nM in experiment [1] (GLP1R CRE luc 1% HSA EC50 Mean Value) and 300 nM in experiment [2].

On to `CC[C@H](C)[C@H](NC(=O)[C@H](Cc1ccccc1)NC(=O)[C@H](CCC(=O)O)NC(=O)[C@H](CCCCN)NC(=O)[C@H](C)NC(=O)[C@H](C)NC(=O)[C@H](CCC(=O)O)NC(=O)[C@H](CCC(=O)O)NC(=O)[C@H](CCC(=O)O)NC(=O)[C@H](CC(C)C)NC(=O)[C@H](Cc1ccc(O)cc1)NC(=O)[C@H](CCCCN)NC(=O)[C@H](CO)NC(=O)[C@H](Cc1ccc(O)cc1)NC(=O)[C@H](CC(=O)O)NC(=O)[C@H](CO)NC(=O)[C@@H](NC(=O)[C@H](Cc1ccccc1)NC(=O)[C@@H](NC(=O)CNC(=O)[C@H](Cc1c[nH]cn1)NC(=O)C(C)(C)NC(=O)[C@@H](N)Cc1c[nH]cn1)[C@@H](C)O)[C@@H](C)O)C(=O)N[C@@H](C)C(=O)N[C@@H](Cc1c[nH]c2ccccc12)C(=O)N[C@@H](CC(C)C)C(=O)N[C@@H](CC(C)C)C(=O)N[C@@H](CCC(=O)O)C(=O)N[C@@H](CCCCN)C(=O)NC(C)(C)C(=O)N[C@@H](CCCCN)C(=O)N[C@@H](CCC(=O)O)C(=O)N[C@@H](Cc1ccccc1)C(=O)N[C@@H](CC(C)C)C(N)=O` [Compound 55] (H-H[Aib]HGTFTSDYSKYLEEEAAKEFIAWLLEK[Aib]KEFL-NH2), for which the EC50 in experiment [1] (setting [3]) was found to be 0.08 nM; in experiment [1] (setting [4]), 0.049 nM. Moreover, the “4 h Cholesterol Efflux Emax” value in experiment [2] was 96%.

Turning to “H-HAEGTFTSDVSSYLEGEAVREFIAWLVHRVREFLEK-OH [Compound 139]”, the values for the EC50 in experiment [1] (setting [3]) and in experiment [1] (setting [4]) were 0.039 nM and 0.014 nM, respectively. Further, the “4 h Cholesterol Efflux Emax” value in experiment [2] worked out at 104%.

In experiment [1] (setting [4]), `CC[C@H](C)[C@H](NC(=O)[C@H](Cc1ccccc1)NC(=O)[C@H](CCC(=O)O)NC(=O)[C@H](CCCCN)NC(=O)[C@@H](NC(=O)[C@H](C)NC(=O)[C@H](CCC(=O)O)NC(=O)CNC(=O)[C@H](CCC(=O)O)NC(=O)[C@H](CC(C)C)NC(=O)[C@H](Cc1ccc(O)cc1)NC(=O)[C@H](CO)NC(=O)[C@H](CO)NC(=O)[C@@H](NC(=O)[C@H](CC(=O)O)NC(=O)[C@H](CO)NC(=O)[C@@H](NC(=O)[C@H](Cc1ccccc1)NC(=O)[C@@H](NC(=O)CNC(=O)[C@H](CCC(=O)O)NC(=O)C(C)(C)NC(=O)[C@@H](N)Cc1c[nH]cn1)[C@@H](C)O)[C@@H](C)O)C(C)C)C(C)C)C(=O)N[C@@H](C)C(=O)N[C@@H](Cc1c[nH]c2ccccc12)C(=O)N[C@@H](CC(C)C)C(=O)N[C@H](C(=O)N[C@@H](CCC(=O)O)C(=O)N[C@@H](CCCCN)C(=O)N[C@H](C(=O)N[C@@H](CCCCN)C(=O)N[C@@H](CCC(=O)O)C(=O)N[C@@H](Cc1ccccc1)C(=O)N[C@@H](Cc1ccccc1)C(N)=O)C(C)C)C(C)C` [Compound 121, [Aib8,Glu23,Val25,Glu34,Lys35,Val36,Lys37]-GLP-1-(7-37)-peptidyl-Glu-Phe-Phe amide] (H-H[Aib]EGTFTSDVSSYLEGEAVKEFIAWLVEKVKEFF-NH2) displayed a 50% effective concentration (EC50) of 0.372 nM. For the same compound, the “4 h Cholesterol Efflux Emax” value in experiment [2] was 109%.

For the compound `CC[C@H](C)[C@H](NC(=O)[C@H](Cc1ccccc1)NC(=O)[C@H](CCCCN)NC(=O)[C@H](CCCCN)NC(=O)[C@@H](NC(=O)[C@H](C)NC(=O)[C@H](CCC(=O)O)NC(=O)CNC(=O)[C@H](CCC(=O)O)NC(=O)[C@H](CC(C)C)NC(=O)[C@H](Cc1ccc(O)cc1)NC(=O)[C@H](CO)NC(=O)[C@H](CO)NC(=O)[C@@H](NC(=O)[C@H](CC(=O)O)NC(=O)[C@H](CO)NC(=O)[C@@H](NC(=O)[C@H](Cc1ccccc1)NC(=O)[C@@H](NC(=O)CNC(=O)[C@H](CCC(=O)O)NC(=O)C(C)(C)NC(=O)[C@@H](N)Cc1c[nH]cn1)[C@@H](C)O)[C@@H](C)O)C(C)C)C(C)C)C(=O)N[C@@H](C)C(=O)N[C@@H](Cc1c[nH]c2ccccc12)C(=O)N[C@@H](CC(C)C)C(=O)N[C@H](C(=O)N[C@@H](CCC(=O)O)C(=O)N[C@@H](CCCCN)C(=O)NC(C)(C)C(=O)N[C@@H](CCCCN)C(=O)N[C@@H](CCC(=O)O)C(=O)N[C@@H](Cc1ccccc1)C(=O)N[C@@H](CC(C)C)C(N)=O)C(C)C` [Compound 51, [Aib8,Glu23,Val25,Lys27,Glu34,Lys35,Aib36,Lys37]-GLP-1-(7-37)-peptidyl-Glu-Phe-Leu amide] (H-H[Aib]EGTFTSDVSSYLEGEAVKKFIAWLVEK[Aib]KEFL-NH2; N-terminus assumed), in experiment [2], the “4 h Cholesterol Efflux Emax” value is on record as 117% and the EC50 is 440 nM.
